Measured values: patent publication US12037322B2, “AHR agonists” (Eli Lilly and Company, priority 2021, dated 2024)

Molecular target: T1, hAHR (Homo sapiens, UniProt P35869)
T1 construct: expressed in transfected cells
T1 sequence (P35869 11-848): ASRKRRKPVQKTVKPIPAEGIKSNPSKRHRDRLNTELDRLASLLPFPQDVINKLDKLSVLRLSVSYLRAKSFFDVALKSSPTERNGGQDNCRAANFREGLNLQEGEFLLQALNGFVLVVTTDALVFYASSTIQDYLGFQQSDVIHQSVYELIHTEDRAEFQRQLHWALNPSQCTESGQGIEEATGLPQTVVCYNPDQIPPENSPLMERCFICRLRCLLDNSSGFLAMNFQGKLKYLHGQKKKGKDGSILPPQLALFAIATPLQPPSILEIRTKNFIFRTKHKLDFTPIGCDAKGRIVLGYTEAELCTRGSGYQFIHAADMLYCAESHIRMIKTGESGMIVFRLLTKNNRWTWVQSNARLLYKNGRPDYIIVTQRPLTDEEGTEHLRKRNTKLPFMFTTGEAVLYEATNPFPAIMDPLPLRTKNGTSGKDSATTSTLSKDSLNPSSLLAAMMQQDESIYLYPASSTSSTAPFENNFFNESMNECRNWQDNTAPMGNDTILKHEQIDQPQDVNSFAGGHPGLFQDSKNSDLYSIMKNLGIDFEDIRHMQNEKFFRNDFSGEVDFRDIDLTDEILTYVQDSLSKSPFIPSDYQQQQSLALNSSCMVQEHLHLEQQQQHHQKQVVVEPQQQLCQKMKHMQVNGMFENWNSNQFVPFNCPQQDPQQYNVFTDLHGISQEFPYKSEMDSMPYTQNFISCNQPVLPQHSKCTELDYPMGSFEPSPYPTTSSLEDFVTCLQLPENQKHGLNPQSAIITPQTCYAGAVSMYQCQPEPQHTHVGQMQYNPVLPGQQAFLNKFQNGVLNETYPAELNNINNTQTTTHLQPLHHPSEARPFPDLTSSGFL
Assay: hAHR nuclear translocation assay
Type: cell-based
Details: Jump-In T-REx HEK293 cells expressing AhR-EGFP; 45 min incubation; ratio of EGFP intensity in nuclear over cytosol; 20-point curve
Experimental: Stable cell lines were established using Jump-In™ T-REx™ HEK293 Retargeting Kit (Life Technologies). hAhR cDNA was cloned into the pJTI R4 CMV-TO EGFP vector. The EGFP was cloned to the C-terminal of AHR to form AhR-EGFP chimera. The pJTI R4 CMV-TO AhR-EGFP vector was transfected using FuGENE® HD into Jump-In™ T-REx™ HEK293 cells. Transfected cells were selected using 2.5 mg/ml G418 for 10 to 14 days, then expanded, harvested, and suspended in freeze media (FBS with 8% DMSO) at 2×10^7 cells/mL, and aliquots were stored in liquid nitrogen. One day before the assay date, cells were thawed and resuspended in DMEM with 5% FBS in the presence of 1 μg/mL Doxycycline and plated into ploy-L-Lysine coated […]-384 ULTRA Microplates (Perkin Elmer) at 12,000 to 15,000 cells per well and incubated at 37° C. and 5% CO2 overnight. On the assay date, compound was serially diluted (1:2) into 384-well nunc plates with DMSO using acoustic dispensing (ECHO). The dose response was a 20-point curve. Compound was resuspended in 40 μL of DMEM plus 0.1% BSA. The culture media was damped and 25 μL of DMEM plus 0.1% BSA was added, then 25 μL of compound in DMEM plus 0.1% BSA was added into cell plates. Cells were incubated with compounds at 37° C. and 5% CO2 for 45 min.
The final DMSO concentration was 0.2%. The media was damped after 45 minutes incubation. The cells were fixed with 40 μL of cold MeOH (−20° C.) for 20 min. The MeOH was damped and 50 μL of DPBS containing 1 μg/mL Hochst was added into the cell plates. The intensity of EGFP was quantitated by using OPERA PHENIX® or Operetta™ high content image system (Perkin Elmer) with 20× Water Objective and five field per well. The ratio of EGFP fluorescent intensity in nuclear over cytosol was analyzed using a 4-parameter nonlinear logistic equation to determine the potency of AhR agonists.

EC50 | SMILES
2.33 nM | CC1CCc2c1c(O)c(C(=O)Nc1ccccn1)c(=O)n2C (single isomer, unassigned) [Example 89, 4-Hydroxy-1,5-dimethyl-2-oxo-N-(2-pyridyl)-6,7-dihydro-5H-cyclopenta[b]pyridine-3-carboxamide]
2.89 nM | CC1CCc2c1c(O)c(C(=O)Nc1ccccn1)c(=O)n2C (single isomer, unassigned) [Example 90, 4-Hydroxy-1,5-dimethyl-2-oxo-N-(2-pyridyl)-6,7-dihydro-5H-cyclopenta[b]pyridine-3-carboxamide]
4.86 nM | CC1CCc2c1c(O)c(C(=O)Nc1ncccc1F)c(=O)n2C (single isomer, unassigned) [Example 91, N-(3-Fluoro-2-pyridyl)-4-hydroxy-1,5-dimethyl-2-oxo-6,7-dihydro-5H-cyclopenta[b]pyridine-3-carboxamide]
1.44 nM | CC1CCc2c1c(O)c(C(=O)Nc1ncccc1F)c(=O)n2C (single isomer, unassigned) [Example 92, N-(3-Fluoro-2-pyridyl)-4-hydroxy-1,5-dimethyl-2-oxo-6,7-dihydro-5H-cyclopenta[b]pyridine-3-carboxamide]
1.06 nM | CC1CCc2c1c(O)c(C(=O)Nc1ncc(Cl)cn1)c(=O)n2C (single isomer, unassigned) [Example 93, N-(5-Chloropyrimidin-2-yl)-4-hydroxy-1,5-dimethyl-2-oxo-6,7-dihydro-5H-cyclopenta[b]pyridine-3-carboxamide]
0.533 nM | CC1CCc2c1c(O)c(C(=O)Nc1ncc(Cl)cn1)c(=O)n2C (single isomer, unassigned) [Example 94, N-(5-Chloropyrimidin-2-yl)-4-hydroxy-1,5-dimethyl-2-oxo-6,7-dihydro-5H-cyclopenta[b]pyridine-3-carboxamide]
1.21 nM | CC1CCc2c1c(O)c(C(=O)Nc1ncc(F)cn1)c(=O)n2C (single isomer, unassigned) [Example 95, N-(5-Fluoropyrimidin-2-yl)-4-hydroxy-1,5-dimethyl-2-oxo-6,7-dihydro-5H-cyclopenta[b]pyridine-3-carboxamide]
0.6 nM | CC1CCc2c1c(O)c(C(=O)Nc1ncc(F)cn1)c(=O)n2C (single isomer, unassigned) [Example 96, N-(5-Fluoropyrimidin-2-yl)-4-hydroxy-1,5-dimethyl-2-oxo-6,7-dihydro-5H-cyclopenta[b]pyridine-3-carboxamide]
0.709 nM | CC1CCc2c1c(O)c(C(=O)Nc1ncc(C(F)(F)F)cn1)c(=O)n2C (single isomer, unassigned) [Example 97, 4-Hydroxy-1,5-dimethyl-2-oxo-N-[5-(trifluoromethyl)pyrimidin-2-yl]-6,7-dihydro-5H-cyclopenta[b]pyridine-3-carboxamide]
0.342 nM | CC1CCc2c1c(O)c(C(=O)Nc1ncc(C(F)(F)F)cn1)c(=O)n2C (single isomer, unassigned) [Example 98, 4-Hydroxy-1,5-dimethyl-2-oxo-N-[5-(trifluoromethyl)pyrimidin-2-yl]-6,7-dihydro-5H-cyclopenta[b]pyridine-3-carboxamide]
2.12 nM | CC1CCc2c1c(O)c(C(=O)Nc1ccc(F)cn1)c(=O)n2C (single isomer, unassigned) [Example 99, N-(5-Fluoro-2-pyridyl)-4-hydroxy-1,5-dimethyl-2-oxo-6,7-dihydro-5H-cyclopenta[b]pyridine-3-carboxamide]
2.17 nM | CC1CCc2c1c(O)c(C(=O)Nc1ccc(F)cn1)c(=O)n2C (single isomer, unassigned) [Example 100, N-(5-Fluoro-2-pyridyl)-4-hydroxy-1,5-dimethyl-2-oxo-6,7-dihydro-5H-cyclopenta[b]pyridine-3-carboxamide]
6.01 nM | COc1cnc(NC(=O)c2c(O)c3c(n(C)c2=O)CCC3C)nc1 (single isomer, unassigned) [Example 101, 4-Hydroxy-N-(5-methoxypyrimidin-2-yl)-1,5-dimethyl-2-oxo-6,7-dihydro-5H-cyclopenta[b]pyridine-3-carboxamide]
2.59 nM | COc1cnc(NC(=O)c2c(O)c3c(n(C)c2=O)CCC3C)nc1 (single isomer, unassigned) [Example 102, 4-Hydroxy-N-(5-methoxypyrimidin-2-yl)-1,5-dimethyl-2-oxo-6,7-dihydro-5H-cyclopenta[b]pyridine-3-carboxamide]
0.865 nM | CC(C)C1CCc2c1cc(C(=O)Nc1ncc(F)cn1)c(=O)n2C (single isomer, unassigned) [Example 112, N-(5-fluoropyrimidin-2-yl)-5-isopropyl-1-methyl-2-oxo-6,7-dihydro-5H-cyclopenta[b]pyridine-3-carboxamide]
11.2 nM | CC(C)C1CCc2c1cc(C(=O)Nc1ncc(F)cn1)c(=O)n2C (single isomer, unassigned) [Example 113, N-(5-fluoropyrimidin-2-yl)-5-isopropyl-1-methyl-2-oxo-6,7-dihydro-5H-cyclopenta[b]pyridine-3-carboxamide]
2.44 nM | CCC1CCc2c1cc(C(=O)Nc1ncc(F)cn1)c(=O)n2C (single isomer, unassigned) [Example 114, 5-ethyl-N-(5-fluoropyrimidin-2-yl)-1-methyl-2-oxo-6,7-dihydro-5H-cyclopenta[b]pyridine-3-carboxamide]
2.96 nM | CCC1CCc2c1cc(C(=O)Nc1ncc(F)cn1)c(=O)n2C (single isomer, unassigned) [Example 115, 5-ethyl-N-(5-fluoropyrimidin-2-yl)-1-methyl-2-oxo-6,7-dihydro-5H-cyclopenta[b]pyridine-3-carboxamide]
9.78 nM | CC1CCc2c1cc(C(=O)Nc1ncc(F)cn1)c(=O)n2C (stereo not shown) [Example 1, N-(5-Fluoropyrimidin-2-yl)-1,5-dimethyl-2-oxo-6,7-dihydro-5H-cyclopenta[b]pyridine-3-carboxamide]
9.78 nM | CC1CCc2c1cc(C(=O)Nc1ccc(F)cn1)c(=O)n2C (stereo not shown) [Example 2, N-(5-Fluoro-2-pyridyl)-1,5-dimethyl-2-oxo-6,7-dihydro-5H-cyclopenta[b]pyridine-3-carboxamide]
1.82 nM | CC1CCc2c1cc(C(=O)Nc1ccc(C(F)(F)F)cn1)c(=O)n2C (stereo not shown) [Example 4, 1,5-Dimethyl-2-oxo-N-[5-(trifluoromethyl)-2-pyridyl]-6,7-dihydro-5H-cyclopenta[b]pyridine-3-carboxamide]
16.9 nM | CC1CCc2c1cc(C(=O)Nc1ncccc1F)c(=O)n2C (stereo not shown) [Example 5, N-(3-Fluoro-2-pyridyl)-1,5-dimethyl-2-oxo-6,7-dihydro-5H-cyclopenta[b]pyridine-3-carboxamide]
4.57 nM | CC1CCc2c1cc(C(=O)Nc1ccc(C(F)(F)F)nc1)c(=O)n2C (stereo not shown) [Example 6, 1,5-Dimethyl-2-oxo-N-[6-(trifluoromethyl)-3-pyridyl]-6,7-dihydro-5H-cyclopenta[b]pyridine-3-carboxamide]
8.26 nM | CC1CCc2c1cc(C(=O)Nc1nccc(C(F)(F)F)n1)c(=O)n2C (stereo not shown) [Example 7, 1,5-Dimethyl-2-oxo-N-[4-(trifluoromethyl)pyrimidin-2-yl]-6,7-dihydro-5H-cyclopenta[b]pyridine-3-carboxamide]
1.42 nM | CC1CCc2c1cc(C(=O)Nc1ncc(C(F)(F)F)cn1)c(=O)n2C (stereo not shown) [Example 8, 1,5-Dimethyl-2-oxo-N-[5-(trifluoromethyl)pyrimidin-2-yl]-6,7-dihydro-5H-cyclopenta[b]pyridine-3-carboxamide]
